Key:
[1] = Animal model of depression (Malatynska and Kostowski); type: in vivo; conditions: for MEDD: Minimum Effective Dose that produces a statistically significant improvement in behavior in an animal model of depression: in vivo; for Potency relative to the reference compound in the animal model of depression: compared with CX516
Source text: J. Pharmacol. 40, 357-364 (1984).

[2] = Eight-arm radial maze task for cognition/memory enhancement; type: in vivo
Source text: This task has been described previously (Staubli et al., PNAS 91:777-781 (1994)) and Lynch and Rogers, PCT Pubn. No. WO 94/02475).

AMPA receptors = assay: Field EPSP amplitude in field CA1 of rat hippocampal slice (in vitro physiological testing); type: cell-based; conditions: estimated by interpolation or extrapolation
Source text: The field EPSP (excitory post-synaptic potential) recorded in field CA1 after stimulation of CA3 axons is known to be mediated by AMPA receptors, which are present in the synapses (Kessler et al., Brain Res. 560: 337-341 (1991)). Drugs that selectively block the receptor selectively block the field EPSP (Muller et al., Science, supra). […] These effects are mirrored in the field EPSP (see, for example, Staubli et al., Psychobiology, supra; Xiao et al., Hippocampus, supra; Staubli et al., Hippocampus 2:4958 (1992)).
To obtain the data shown in Table I, a bipolar nichrome stimulating electrode was positioned in the dendritic layer (stratum radiatum) of the hippocampal subfield CA1 close to the border of subfield CA3, as described in Example 21. Current pulses (0.1 msec) through the stimulating electrode activate a population of the Schaffer-commissural (SC) fibers, which arise from neurons in the subdivision CA3 and terminate in synapses on the dendrites of CA1 neurons. Activation of these synapses causes them to release the transmitter glutamate. Glutamate binds to the post-synaptic AMPA receptors which then transiently open an associated ion channel and permit a sodium current to enter the post-synaptic cell. This current results in a voltage in the extracellular space (the field EPSP), which is recorded by a high impedance recording electrode positioned in the middle of the stratum radiatum of CA1.
The intensity of the stimulation current was adjusted to produce half-maximal EPSPs (typically about 1.5-2.0 mV). Paired stimulation pulses were given every 40 sec with an interpulse interval of 200 msec, as described further in Example 21.
(§1) Hippocampal slices were maintained in a recording chamber continuously perfused with artificial cerebrospinal fluid (ACSF). During 15-30 minute intervals, the perfusion medium was switched to one containing various concentrations of the test compounds. Responses collected immediately before and at the end of drug perfusion were superimposed in order to calculate the percent increase in EPSP amplitude.
Invention compounds 1-9, as shown in FIG. 3 and Table I below, and reference compound CX516 (1-(quinoxalin-6-ylcarbonyl)piperidine), disclosed in PCT Pubn. No. WO 94/02475, were assayed in the physiological test system described above.
as §1, with “The physiological effects of invention compounds were tested in vitro with” for “Hippocampal”, “slices of rat hippocampus according to the following procedure. Excitatory responses (field EPSPs) were measured in hippocampal slices, which” for “slices”, “During a” for “During”, “interval,” for “intervals,”
To conduct these tests, the hippocampus was removed from anesthetized, 2 month old Sprague-Dawley rats and in vitro slices (400 micrometers thick) were prepared and maintained in an interface chamber at 35° C. using conventional techniques [see, for example, Dunwiddie and Lynch, J. Physiol. 276: 353-367 (1978)]. The chamber was constantly perfused at 0.5 mL/min with ACSF containing (in mM): NaCl 124, KCl 3, KH2PO4 1.25, MgSO42.5, CaCl2 3.4, NaHCO3 26, glucose 10 and L-ascorbate 2. A bipolar nichrome stimulating electrode was positioned in the dendritic layer (stratum radiatum) of the hippocampal subfield CA1 close to the border of subfield CA3.
Current pulses (0.1 msec) through the stimulating electrode activate a population of the Schaffer-commissural (SC) fibers which arise from neurons in the subdivision CA3 and terminate in synapses on the dendrites of CA1 neurons. Activation of these synapses causes them to release the transmitter glutamate. […]

[3] = tested on: methamphetamine-induced hyperactivity and/or stereotypic activity; assay: Methamphetamine/rat model of schizophrenia (hyperactivity and/or stereotypic activity); type: in vivo, Sprague-Dawley rats; conditions: for MEDS: Minimum Effective Dose that produces a statistically significant improvement in behavior in the animal model of schizophrenia: rats, 2 mg/kg methamphetamine, activity monitored for 90 minutes
Protocol: The dose recorded is that which reduced the hyperactivity and/or the stereotypic activity induced by acute administration of 2 mg/kg methamphetamine in rats, as described in Example 22.
The dose recorded is that which reduced the hyperactivity and/or the stereotypic activity induced by acute administration of 2 mg/kg methamphetamine in Sprague-Dawley rats aged 2-4 months. Activity was monitored for 90 minutes using two rows of multiple, paired infrared diode-detectors such that the lower row detected locomotion and the upper row detected rearing behavior. Data were collected by and stored in a personal computer for later analysis.

melting point	SMILES	MEDC: Minimum Effective Dose that produces a statistically significant improvement in behavior in the eight-arm radial maze task [2]	Amp: concentration of compound that causes a 10% increase in the amplitude of the field EPSP in Field CA1 of rat hippocampal slice (AMPA receptors)	also measured
–	O=C(c1ccc2nccnc2c1)N1CCCCC1 [CX516, 1-(quinoxalin-6-ylcarbonyl)piperidine, reference compound]	15 mg/kg	50 µM	MEDD: Minimum Effective Dose that produces a statistically significant improvement in behavior in an animal model of depression [1]: 5 mg/kg; MEDS: Minimum Effective Dose that produces a statistically significant improvement in behavior in the animal model of schizophrenia [3]: 10 mg/kg
–	O=C(c1ccc2nsnc2c1)N1CCCCC1 [Compound 1, 1-(Benzo-2,1,3-thiadiazole-5-ylcarbonyl)piperidine]	–	<100 µM	–
88.5 to 90.5 °C	O=C(c1ccc2nonc2c1)N1CCCCC1 [Compound 2, 1-(Benzofurazan-5-ylcarbonyl)piperidine]	0.1 mg/kg	3 µM	Potency relative to the reference compound in the animal model of depression [1]: approximately 500 fold; MEDD: Minimum Effective Dose that produces a statistically significant improvement in behavior in an animal model of depression [1]: 0.01 mg/kg; Reduction in dose giving an equivalent effect relative to reference compound CX516 ([3]; methamphetamine/rat model): hundred-fold; MEDS: Minimum Effective Dose that produces a statistically significant improvement in behavior in the animal model of schizophrenia [3]: 0.1 mg/kg
–	O=C(c1ccc2nonc2c1)N1CC=CCC1 [Compound 3, 1-(Benzofurazan-5-ylcarbonyl)-1,2,3,6-tetrahydropyridine]	–	100 µM	–
–	O=C(c1ccc2nonc2c1)N1CCC(F)CC1 [Compound 4, 1-(Benzofurazan-5-ylcarbonyl)-4-fluoropiperidine]	–	30 µM	MEDS: Minimum Effective Dose that produces a statistically significant improvement in behavior in the animal model of schizophrenia [3]: 1 mg/kg
–	O=C(c1ccc2nonc2c1)N1CCC(F)(F)CC1 [Compound 5, 1-(Benzofurazan-5-ylcarbonyl)-4,4-difluoropiperidine]	–	50 µM	MEDS: Minimum Effective Dose that produces a statistically significant improvement in behavior in the animal model of schizophrenia [3]: 1 mg/kg
–	O=C(c1ccc2nonc2c1)N1CC=C(F)CC1 [Compound 6, 1-(Benzofurazan-5-ylcarbonyl)-1,2,3,6-tetrahydro-4-fluoropyridine]	–	30 µM	–
–	O=C(c1ccc2nonc2c1)N1CCOCC1 [Compound 7, 4-(Benzofurazan-5-ylcarbonyl)morpholine]	0.1 mg/kg	3 µM	–
104 to 107 °C	N#CC1CCN(C(=O)c2ccc3nonc3c2)CC1 [Compound 8, 1-(Benzofurazan-5-ylcarbonyl)-4-cyanopiperidine]	0.1 mg/kg	1 µM	–
132 to 136 °C	O=C(c1ccc2nonc2c1)N1CCC(O)CC1 [Compound 9, 1-(Benzofurazan-5-ylcarbonyl)-4-hydroxypiperidine]	0.1 mg/kg	20 µM	Potency relative to the reference compound in the animal model of depression [1]: approximately 500 fold; MEDD: Minimum Effective Dose that produces a statistically significant improvement in behavior in an animal model of depression [1]: 0.01 mg/kg
144 to 146 °C	O=C(c1ccc2nonc2c1)[SH]1CCNCC1 [Compound 10, 1-(Benzofurazan-5-ylcarbonyl)thiomorpholine]	–	–	–
97.8 to 99.3 °C	O=C(c1ccc2nonc2c1)N1CCCC1 [Compound 11, 1-(Benzofurazan-5-ylcarbonyl)pyrrolidine]	–	–	–
117 to 118 °C	O=C(c1ccc2nonc2c1)N1CC=CC1 [Compound 12, 1-(Benzofurazan-5-ylcarbonyl)-3-pyrroline]	–	–	–
86 to 87 °C	CC1CCN(C(=O)c2ccc3nonc3c2)CC1 [Compound 13, 1-(Benzofurazan-5-ylcarbonyl)-4-methylpiperidine]	–	–	–
86 to 87 °C	O=C(c1ccc2nonc2c1)N1CCCCCC1 [Compound 14, 1-(Benzofurazan-5-ylcarbonyl)hexamethyleneimine]	–	–	–

— patent US6730677B2, “Benzofurazan compounds which enhance AMPA receptor activity” (The Regents of the University of California, priority 1997, dated 2004)
